The record followed here is ChEMBL document CHEMBL5335868, “Exploring Scaffold Hopping for Novel 2-(Quinolin-4-yloxy)acetamides with Enhanced Antimycobacterial Activity” (ACS Med Chem Lett, 2024).

Structures are written as SMILES. Values after ≈ are worked out from the molar mass of the structure shown.

Common to all, as to assay type: functional
The subject of assay [1] is Mycobacterium tuberculosis. The assay can be described thus: Antibacterial activity against qcrB-resistant Mycobacterium tuberculosis harbouring T313A mutant assessed as bacterial growth inhibition measured after 7 days by resazurin based assay. Particulars: time 7 day.
Assay [2] relates to Mycobacterium tuberculosis. The assay can be described thus: Antibacterial activity against multi-drug resistant Mycobacterium tuberculosis clinical isolate PT12 assessed as bacterial growth inhibition measured after 7 days by resazurin based assay. Particulars: 168 h, time 7 day.
For assay [3], the system named is Mycobacterium tuberculosis. The assay can be described thus: Antibacterial activity against multi-drug resistant Mycobacterium tuberculosis clinical isolate PT20 assessed as bacterial growth inhibition measured after 7 days by resazurin based assay. Conditions: 168 h, time 7 day.
For assay [4], the system named is Mycobacterium tuberculosis. The assay can be described thus: Antibacterial activity against multi-drug resistant Mycobacterium tuberculosis clinical isolate PT2 assessed as bacterial growth inhibition measured after 7 days by resazurin based assay. Conditions: 168 h, time 7 day. (In general: The colour change of resazurin is a common sign of viable cells or microbes.)

As usually defined, the MIC is the lowest concentration found to suppress growth. Turning to `NNC(=O)c1ccncc1` [ISONIAZID], the MIC in assay [1] is 2.3 µM (≈ 0.315 µg/mL); in assay [2], 146 µM (≈ 20 µg/mL).
Turning to `COc1ccc2nc(C)cc(OCC(=O)Nc3ccc(N4CCC(c5ccccc5)CC4)cc3)c2c1`, the MIC in assay [1] is greater than 10.4 µM; in assay [3] it was less than 0.02 µM; in assay [4], less than 0.02 µM; in assay [2], less than 0.02 µM.
Regarding `COc1ccc2nc(C)cc(OCC(=O)Nc3ccc(N4CCC(c5ccc(OC(F)(F)F)cc5)CC4)cc3)c2c1`, the MIC is greater than 8.8 µM in assay [1], less than 0.02 µM in assay [3], less than 0.02 µM in assay [4] and less than 0.02 µM in assay [2].
`CO[C@H]1/C=C/O[C@@]2(C)Oc3c(C)c(O)c4c(O)c(c(/C=N/N5CCN(C)CC5)c(O)c4c3C2=O)NC(=O)/C(C)=C\C=C\[C@H](C)[C@H](O)[C@@H](C)[C@@H](O)[C@@H](C)[C@H](OC(C)=O)[C@@H]1C` [RIFAMPIN]: the MIC in assay [3], in assay [4] and in assay [2] was greater than 48.6 µM in each case.
For the compound `Cc1cc(OCC(=O)Nc2ccc(N3CCC(c4ccccc4)CC3)cc2)c2cc(Cl)ccc2n1`, the MIC in assay [1] was greater than 10.3 µM; in assay [3], less than 0.02 µM; in assay [4], less than 0.02 µM; in assay [2], less than 0.02 µM.
Turning to `Cc1cc(OCC(=O)Nc2ccc(N3CCC(c4ccccc4)CC3)cc2)c2cc(Br)ccc2n1`, the MIC is greater than 9.4 µM in assay [1], less than 0.02 µM in assay [3], less than 0.02 µM in assay [4] and less than 0.02 µM in assay [2].
